Broadly, the Ki is the dissociation constant of the complex between target and ligand, obtained from inhibition or displacement.

Structures are written as SMILES. Where a name gives a salt, the structure may show the parent alone.

T1 sequence (P08581 974-1390 limits assumed): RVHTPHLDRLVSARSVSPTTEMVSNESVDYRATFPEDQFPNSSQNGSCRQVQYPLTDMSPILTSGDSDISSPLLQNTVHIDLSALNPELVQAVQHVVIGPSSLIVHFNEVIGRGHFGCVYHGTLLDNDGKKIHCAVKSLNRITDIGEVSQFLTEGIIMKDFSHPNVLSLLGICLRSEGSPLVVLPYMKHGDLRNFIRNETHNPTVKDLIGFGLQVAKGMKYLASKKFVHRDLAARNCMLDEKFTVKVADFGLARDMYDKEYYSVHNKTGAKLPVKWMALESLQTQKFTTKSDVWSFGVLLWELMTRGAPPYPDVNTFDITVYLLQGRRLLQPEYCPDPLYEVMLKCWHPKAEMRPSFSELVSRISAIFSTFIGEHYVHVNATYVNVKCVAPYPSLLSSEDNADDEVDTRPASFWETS

One assay has as its target T1, HGFR (Homo sapiens, UniProt P08581).
T1 construct: purchased Upstate 14-526
Kind of assay: HGFR continuous-coupled spectrophotometric assay (tyrosine kinase activity on Met-2 substrate peptide). Format: biochemical. The following applies: HGFR 50 nM, Met-2 peptide 0.5 mM, ATP 300 μM, 37° C., absorbance 340 nm; read-out: Ki.
For `COCCOc1cnc2nnn(Cc3ccc4ncccc4c3)c2n1` [Example 169, 6-{[6-(2-methoxy-ethoxy)-1H-[1,2,3]tri-azolo[4,5-b]pyra-zin-1-yl]meth-yl}quinoline], the Ki was found to be 26 nM.
Same read-out and setting: the result for `CN(CCO)c1cnc2nnn(Cc3ccc4ncccc4c3)c2n1` [Example 78, 2-{methyl[1-(quino-lin-6-yl-methyl)-1H-[1,2,3]tri-azolo[4,5-b]py-razin-6-yl]ami-no}ethanol] reads 37 nM; that for `Cc1cnc2nnn(C(C)c3ccc4c(c3)OCCO4)c2n1` (stereo not drawn) [Example 180, 1-[1-(3,4-Dihydro-benzo[1,4]dioxin-6-yl)-eth-yl]-6-meth-yl-1H-[1,2,3]tri-azolo[4,5-b]pyrazine], 412 nM; that for `c1cnc2ccc(Cn3nnc4ncc(N5CCC(CCn6cccn6)CC5)nc43)cc2c1` [Example 92, 6-[(6-{4-[2-(1H-pyra-zol-1-yl)eth-yl]piperidin-1-yl}-1H-[1,2,3]tri-azolo[4,5-b]pyra-zin-1-yl)meth-yl]quinoline], 16 nM.
Still for that read-out and setting: the result for `N#Cc1cnc2nnn(Cc3ccc4ncccc4c3)c2n1` [Example 163, 1-(quinolin-6-yl-methyl)-1H-[1,2,3]tri-azolo[4,5-b]pyra-zine-6-carbonitrile] reads 25 nM.
Still for that read-out and setting: the same measure for `O[C@@H]1C[C@H]2CN(c3cnc4nnn(Cc5ccc6ncccc6c5)c4n3)CCN2C1` [Example 105, (7R,8aS)-2-[1-(quino-lin-6-yl-methyl)-1H-[1,2,3]tri-azolo[4,5-b]pyra-zin-6-yl]octa-hydropyrro-lo[12-a]pyra-zin-7-ol]: 29 nM.
Regarding `NC(=O)CNc1cnc2nnn(Cc3ccc4ncccc4c3)c2n1` [Example 140, N~2~-[1-(quino-lin-6-yl-methyl)-1H-[1,2,3]tri-azolo[4,5-b]pyra-zin-6-yl]glycinamide], the Ki was 47 nM.
Same read-out and setting: the same measure for `CNC(=O)c1cccc(-c2cnc3nnn(Cc4ccc5ncccc5c4)c3n2)c1` [Example 18, N-methyl-3-(3-(quinolin-6-ylmethyl)-3H-[1,2,3]triazolo[4,5-b]pyrazin-5-yl)benzamide]: 5 nM; for `O=C(O)c1ccc(-c2cnc3nnn(Cc4ccc5ncccc5c4)c3n2)cc1Cl` [Example 39, 2-chloro-4-(3-(quinolin-6-ylmethyl)-3H-[1,2,3]triazolo[4,5-b]pyrazin-5-yl)benzoic acid]: 21 nM; for `CCc1noc(CN(C)c2cnc3nnn(Cc4ccc5ncccc5c4)c3n2)n1` [Example 91, N-[(3-ethyl-124-oxa-diazol-5-yl)meth-yl]-N-meth-yl-1-(quino-lin-6-yl-methyl)-1H-[1,2,3]tri-azolo[4,5-b]pyra-zin-6-amine]: 25 nM.
The same measure, in the same setting: the same measure for `CN(Cc1noc(C2CC2)n1)c1cnc2nnn(Cc3ccc4ncccc4c3)c2n1` [Example 95, N-[(5-cyclo-propyl-1,2,4-oxa-diazol-3-yl)meth-yl]-N-methyl-1-(quino-lin-6-yl-methyl)-1H-[1,2,3]tri-azolo[4,5-b]pyra-zin-6-amine]: 20 nM.
The same measure, in the same setting: the result for `OC[C@H]1C[C@@H]1CNc1cnc2nnn(Cc3ccc4ncccc4c3)c2n1` [Example 129, [(1S,2S)-2-({[1-(quino-lin-6-yl-methyl)-1H-[1,2,3]tri-azolo[4,5-b]pyrazin-6-yl]ami-no}methyl)cyclo-propyl]methanol] reads 13 nM; that for `CN(CCO)[C@@H]1CCN(c2cnc3nnn(Cc4ccc5ncccc5c4)c3n2)C1` [Example 204, 2-(methyl{(3R)-1-[1-(quino-lin-6-yl-methyl)-1H-[1,2,3]tri-azolo[4,5-b]pyra-zin-6-yl]pyrro-lidin-3-yl}ami-no)ethanol. TFA salt], 37 nM.
Regarding `CC(c1ccc2ncccc2c1)n1nnc2ncc(Br)nc21` (stereo in doubt) [Example 212, 6-[(S)-1-(6-Bromo-[1,2,3]triazolo [4,5-b]pyrazin-1-yl)-ethyl]-quinoline], the Ki was 42 nM.
As for `FC(F)c1nnc2n1CCN(c1cnc3nnn(Cc4ccc5ncccc5c4)c3n1)C2` [Example 108, 6-({6-[3-(di-fluoromethyl)-5,6-di-hydro[1,2,4]tri-azolo[4,3-a]pyrazin-7(8H)-yl]-1H-[1,2,3]tri-azolo[4,5-b]pyra-zin-1-yl}meth-yl)quinoline], the Ki was found to be 26 nM.
Same read-out and setting: the same measure for `CCN1CCN(c2cnc3nnn(Cc4ccc5ncccc5c4)c3n2)C(C)C1=O` (stereo not drawn) [Example 82, 1-ethyl-3-meth-yl-4-[1-(quino-lin-6-yl-methyl)-1H-[1,2,3]tri-azolo[4,5-b]pyra-zin-6-yl]pipe-razin-2-one]: 15 nM; for `NCCNC(=O)c1ccc(-c2cnc3nnn(Cc4ccc5ncccc5c4)c3n2)cc1` [Example 11, N-(2-aminoethyl)-4-(3-(quinolin-6-ylmethyl)-3H-[1,2,3]triazolo[4,5-b]pyrazin-5-yl)benzamide]: 4 nM; for `CC1C(=O)NCCN1c1cnc2nnn(Cc3ccc4ncccc4c3)c2n1` (stereo not drawn) [Example 75, 3-methyl-4-[1-(quino-lin-6-yl-methyl)-1H-[1,2,3]tri-azolo[4,5-b]py-razin-6-yl]pipe-razin-2-one]: 23 nM.
On the same count and under the same terms, the result for `CCOCC(O)CNc1cnc2nnn(Cc3ccc4ncccc4c3)c2n1` (stereo not drawn) [Example 132, 1-ethoxy-3-{[1-(quino-lin-6-yl-methyl)-1H-[123]tri-azolo[45-b]pyra-zin-6-yl]ami-no}propan-2-ol] reads 8 nM; that for `CC1(CO)CCCN(c2cnc3nnn(Cc4ccc5ncccc5c4)c3n2)C1` (stereo not drawn) [Example 90, {3-methyl-1-[1-(quino-lin-6-yl-methyl)-1H-[1,2,3]tri-azolo[4,5-b]pyra-zin-6-yl]pipe-ridin-3-yl}methanol], 39 nM; that for `COc1ccc(-c2cnc3nnn(Cc4ccc5ncccc5c4)c3n2)cc1` [Example 21, 6-((6-(4-methoxyphenyl)-1H-[1,2,3]triazolo[4,5-b]pyrazin-1-yl)methyl)-quinoline], 4 nM.
On to `CC(O)CNc1cnc2nnn(Cc3ccc4ncccc4c3)c2n1` (stereo not drawn) [Example 174, 1-{[1-(quinolin-6-yl-methyl)-1H-[1,2,3]tri-azolo[4,5-b]pyra-zin-6-yl]ami-no}propan-2-ol], for which the Ki was 7 nM.
`c1cnc2ccc(Cn3nnc4ncc(NCc5cc(C6CC6)[nH]n5)nc43)cc2c1` [Example 124, N-[(5-cyclo-propyl-1H-pyra-zol-3-yl)meth-yl]-1-(quino-lin-6-yl-methyl)-1H-[1,2,3]tri-azolo[4,5-b]pyra-zin-6-amine]: the Ki was 35 nM.
Turning to `CN(C)[C@@H]1CCN(c2cnc3nnn(Cc4ccc5ncccc5c4)c3n2)C1` [Example 30, (R)-N,N-dimethyl-1-(3-(quinolin-6-ylmethyl)-3H-[1,2,3]triazolo[4,5-b]pyrazin-5-yl)pyrrolidin-3-amine], the Ki was 8 nM.
Same read-out and setting: the result for `OC[C@@H]1C[C@H]1CNc1cnc2nnn(Cc3ccc4ncccc4c3)c2n1` [Example 127, [(1R,2R)-2-({[1-(quino-lin-6-yl-methyl)-1H-[1,2,3]tri-azolo[4,5-b]pyra-zin-6-yl]ami-no}methyl)cyclo-propyl]methanol] reads 40 nM.
On the same count and under the same terms, the result for `FC1(F)CCN([C@@H]2CCN(c3cnc4nnn(Cc5ccc6ncccc6c5)c4n3)C2)CC1` [Example 208, 6-({6-[(3R)-3-(4,4-di-fluoropiperidin-1-yl)pyrro-lidin-1-yl]-1H-[1,2,3]tri-azolo[4,5-b]pyra-zin-1-yl}meth-yl)quinoline. TFA salt] reads 156 nM.
As to `CN1CCN(c2cnc3nnn(Cc4ccc5ncccc5c4)c3n2)CC1=O` [Example 89, 1-methyl-4-[1-(quino-lin-6-yl-methyl)-1H-[1,2,3]tri-azolo[4,5-b]pyra-zin-6-yl]pipe-razin-2-one], the Ki is 41 nM.
On the same count and under the same terms, the result for `c1cnc2ccc(Cn3nnc4ncc(-c5cnn(CC6CCNCC6)c5)nc43)cc2c1` [Example 4] reads 69 nM; that for `c1cnc2ccc(Cn3nnc4ncc(N5CC[C@@H](N6CCOCC6)C5)nc43)cc2c1` [Example 206, 6-({6-[(3R)-3-morpho-lin-4-ylpyrro-lidin-1-yl]-1H-[1,2,3]tri-azolo[4,5-b]pyra-zin-1-yl}meth-yl)quinoline. TFA salt], 22 nM; that for `O=C1CCN(c2cnc3nnn(Cc4ccc5ncccc5c4)c3n2)C1` [Example 154, 1-[1-(quinolin-6-yl-methyl)-1H-[1,2,3]tri-azolo[4,5-b]pyra-zin-6-yl]pyrro-lidin-3-one], 39 nM.
Same read-out and setting: the same measure for `CC(CO)Nc1cnc2nnn(Cc3ccc4ncccc4c3)c2n1` (stereo in doubt) [Example 120, (2R)-2-{[1-(quino-lin-6-yl-methyl)-1H-[1,2,3]tri-azolo[4,5-b]pyra-zin-6-yl]ami-no}propan-1-ol]: 41 nM; for `OC1(C(F)(F)F)CCN([C@@H]2CCN(c3cnc4nnn(Cc5ccc6ncccc6c5)c4n3)C2)CC1` [Example 151, 1-{(3R)-1-[1-(quino-lin-6-yl-methyl)-1H-[1,2,3]tri-azolo[4,5-b]pyra-zin-6-yl]pyrro-lidin-3-yl}-4-(tri-fluoromethyl)pipe-ridin-4-ol]: 20 nM.
Consider `c1cnc2ccc(Cn3nnc4ncc(-c5cnn([C@H]6CCOC6)c5)nc43)cc2c1` [Example 62, 6-{6-[(S)-1-(Tetrahydro-furan-3-yl)-1H-pyrazol-4-yl]-[1,2,3]triazolo[4,5-b]pyrazin-1-ylmethyl}-quinoline], for which the Ki was 13 nM.
As for `N[C@@H]1CCCN(c2cnc3nnn(Cc4ccc5ncccc5c4)c3n2)C1` [Example 31, (R)-1-(3-(quinolin-6-ylmethyl)-3H-[1,2,3]triazolo[4,5-b]pyrazin-5-yl)piperidin-3-amine dihydrochloride], the Ki amounted to 59 nM.
Still for that read-out and setting: the same measure for `Brc1cnc2nnn(Cc3ccc4c(c3)CCO4)c2n1` [Example 41, 6-Bromo-1-(2,3-dihydro-benzofuran-5-ylmethyl)-1H-[1,2,3]triazolo[4,5-b]pyrazine]: 36 nM.

Staying with this assay, now noted: Ki, HGFR 50 nM, Met-2 peptide 0.5 mM, ATP 300 μM, 37° C., absorbance 340 nm.
The compound `c1cnc2ccc(Cn3nnc4ncc(N5CCc6nc[nH]c6C5)nc43)cc2c1` [Example 100, 6-{[6-(3,4,6,7-tetra-hydro-5H-imi-dazo[4,5-c]pyri-din-5-yl)-1H-[1,2,3]tri-azolo[4,5-b]pyra-zin-1-yl]meth-yl}quinoline] showed a Ki of 37 nM.

(Values after US7732604B2, “Triazolopyrazine derivatives” (Pfizer Inc., priority 2006, dated 2010).)
